US11247973B2 (The University of Durham, priority 2016, dated 2022)
Where two headings read alike, the source gives them in different places.

Experiments:
[1] = Cell cytotoxicity CC50 assay (A549 and HeLa cells); format: cell-based; details: human, 6-8 days, DMEM+2% FCS
From the text: Cells were obtained from ATCC and the virus preparation was subjected to one round of centrifugation through a 40% (V/V) glycerol to remove any interferon produced from infected cells. Growth medium was Dulbecco's modified Eagle's medium (DMEM) with 10% (v/v) foetal calf serum (FCS), Viral maintainance medium was DMEM+2% (v/v) FCS.
Cell Cytotoxicity—CC50 (Concentration at which 50% Cell Toxicity is Observed):
A549 cells and HeLa cells were used to seed a set of 96 well plates grown until 50% confluent, a 2 fold serial dilution of the compound was performed on each cell line with DMSO (only) as control starting with 100 μM of the compound. Medium used was DMEM+2% FCS (normal medium for viral growth).
Cells were allowed to grow for 6-8 days to mimic a TCID50 assay after which cell viability was determined by adding Almar blur (similar to XT) and reading at 600 nm (excitation 540 nm).

[2] = Microsomal clearance, dog; format: in vitro ADME; details: male, Beagle, pooled liver microsomes
Procedure: (§1) Pooled human liver microsomes (pooled male and female), pooled rat liver microsomes (male Sprague Dawley rats) and pooled dog liver microsomes (male Beagle dog) are purchased from a reputable commercial supplier and stored at −80° C. prior to use.
(§2) Microsomes (final protein concentration 0.5 mg/mL), 0.1 M phosphate buffer pH 7.4 and compound 2 (final substrate concentration 3 μM; final DMSO concentration 0.25%) are pre-incubated at 37° C. prior to the addition of NADPH (final concentration 1 mM) to initiate the reaction. The final incubation volume is 50 μL. A control incubation is included for each compound tested where 0.1 M phosphate buffer pH 7.4 is added instead of NADPH (minus NADPH). Two control compounds are included with each species. All incubations are performed singularly for each test compound.
(§3) Compounds are incubated for 0, 5, 15, 30 and 45 min. The control (minus NADPH) is incubated for 45 min only. The reactions are stopped by transferring 25 μL of incubate to 50 μL methanol at the appropriate time points. […] Following protein precipitation, the sample supernatants are combined in cassettes of up to 4 compounds, internal standard is added and samples analysed by LC-MS/MS. From a plot of ln peak area ratio (compound peak area/internal standard peak area) against time, the gradient of the line is determined.

[3] = Microsomal clearance, rat; format: in vitro ADME; details: male, Sprague Dawley, pooled liver microsomes
Procedure: as §1, §2, §3

[4] = Microsomal clearance, human; format: in vitro ADME; details: both, pooled liver microsomes
Procedure: as §1, §2, §3

[5] = test system: RSV; test: Plaque reduction assay in Vero cells (standard and time of addition); format: cell-based; details: human respiratory syncytial virus
[6] = test system: MDR1; test: MDR1-MDCK permeability assay; format: in vitro ADME; details: dog
Procedure: (§4) MDR1-MDCK cells obtained from the NIH (Rockville, Md., USA) are used between passage numbers 6-30. Cells are seeded onto Millipore Multiscreen Transwell plates at 3.4×10^5 cells/cm^2. The cells are cultured in DMEM and media is changed on day 3. On day 4 the permeability study is performed. Cell culture and assay incubations are carried out at 37° C. in an atmosphere of 5% CO2 with a relative humidity of 95%. On the day of the assay, the monolayers are prepared by rinsing both basolateral and apical surfaces twice with Hanks Balanced Salt Solution (HBSS) at the desired pH warmed to 37° C. Cells are then incubated with HBSS at the desired pH in both apical and basolateral compartments for 40 min to stabilise physiological parameters.
(§5) The dosing solutions are prepared by diluting compound 2 with assay buffer to give a final compound 2 concentration of 10 μM (final DMSO concentration of 1% v/v). The fluorescent integrity marker lucifer yellow is also included in the dosing solution. Analytical standards are prepared from test compound DMSO dilutions and transferred to buffer, maintaining a 1% v/v DMSO concentration.
(§6) For assessment of A-B permeability, HBSS is removed from the apical compartment and replaced with compound 2 dosing solution. The apical compartment insert is then placed into a companion plate containing fresh buffer (containing 1% v/v DMSO). For assessment of B-A permeability, HBSS is removed from the companion plate and replaced with compound 2 dosing solution. Fresh buffer (containing 1% v/v DMSO) is added to the apical compartment insert, which is then placed into the companion plate.
(§7) At 60 min the apical compartment inserts and the companion plates are separated and apical and basolateral samples diluted for analysis.
(§8) Compound 2 permeability is assessed in duplicate. Compounds of known permeability characteristics are run as controls on each assay plate.
(§9) Compound 2 and control compounds are quantified by LC-MS/MS cassette analysis using an 8-point calibration with appropriate dilution of the samples. The starting concentration (Co) is determined from the dosing solution and the experimental recovery calculated from Co and both apical and basolateral compartment concentrations.
(§10) The integrity of the monolayer throughout the experiment is checked by monitoring lucifer yellow permeation using fluorimetric analysis. Lucifer yellow permeation is high if monolayers have been damaged.

[7] = test system: MDR1-MDCK cells; test: MDR1-MDCK permeability assay; format: in vitro ADME
Procedure: as §4, §5, §6, §7, §8, §9, §10

[8] = MTT cell toxicity assay; format: cell-based; details: African green monkey, Vero cells
Procedure: Vero cells were seeded in 96-well plates in a volume of 100 μL Optimem media supplemented with 1% FBS at a concentration of 1×10^4 cells per well. After an overnight incubation at 37° C. in a humidified 5% CO2 atmosphere, the monolayer of cells should be approximately 90% confluent. Compound 2 was titrated in pre-warmed Serum Free (SF) Optimem in a U-bottom 96 well plate. For compounds in a DMSO solution, titration in 100% DMSO was performed first and each concentration added individually to a 2× final concentration at 4% DMSO. Media was then removed from cells and replaced with titrated compounds (100 μl/well). Cells were incubated at 37° C. in a humidified 5% CO2 atmosphere for 48 hours.
The MTT solution on Optimem (4 mg/ml) was prepared and 2 ul added to each well before it was incubated for 2 hours at 37° C. in a humidified 5% CO2 atmosphere. Media was then removed from the cells and DMSO added (50 ul/well). Plates were placed on a shaker prior to reading in a Spectromax at 570 nm. Data was normalised relative to untreated controls (1% DMSO only) and CC50 values determined using non-linear regression analysis with Graphpad Prism software.

`O=C(CNc1c(F)c(F)nc(F)c1F)N[C@H]1N=C(c2ccccc2)c2ccccc2NC1=O` [Compound 2] showed a CC50 [1] of 100 µM, a microsomal CLint at 3 μM ([2]; pH 7.4, 0.5 mg/mL protein, read-out: Intrinsic clearance - dog) of 7.05 µL/min/mg and a half-life at 3 μM ([2]; pH 7.4, read-out: t½ - dog) of 197 min. The microsomal CLint at 3 μM ([3]; pH 7.4, 0.5 mg/mL protein, read-out: Intrinsic clearance - rat) was 29.2 µL/min/mg, the half-life at 3 μM ([3]; pH 7.4, read-out: t½ - rat) was 47.5 min and the microsomal CLint at 3 μM ([4]; pH 7.4, 0.5 mg/mL protein, read-out: Intrinsic clearance - human) was 52.6 µL/min/mg. It also gave a half-life at 3 μM ([4]; pH 7.4, read-out: t½ - human) of 26.3 min, an IC50 ([5]; compound added during infection only, read-out: Plaque IC50 (during infection only)) of 10.9 µM and an IC50 ([5]; compound added post infection only, read-out: Plaque IC50 (post infection only)) of 2 µM. For the same compound, the IC50 ([5]; standard plaque reduction assay, read-out: Plaque IC50) was 1.1 µM, the Papp A→B at 60 min, 10 μM ([6]; 10 μM, 60 min, read-out: Permeability A2B) was 0.553 ×10⁻⁶ cm/s and the Papp B→A at 60 min, 10 μM ([6]; 10 μM, 60 min, read-out: Permeability B2A) was 76.3 ×10⁻⁶ cm/s. For the same compound, the efflux ratio at 60 min, 10 μM ([6]; read-out: Efflux ratio B2A/A2B) was 138, the “Permeability assessment in words” value [7] was “permeable compound but with a susceptibility for an efflux mechanism” and the CC50 at 48 h [8] was 63 µM.
